Columns and labels:
[1] = system: Human oral squamous carcinoma HEp-2; experiment: MTT cell proliferation assay, HEp-2 cells; type: cell-based; conditions: for IC50: Homo sapiens, 72 h treatment, MTT, read-out: IC50, reduction in proliferation
Description: (§1) Antiproliferative Activity, Materials and methods: Human oral squamous carcinoma HEp-2 and human mammary adenocarcinoma (MCF-7) cell lines were obtained from National Centre for Cell Science, Pune, India. Cells were maintained as a monolayer in nutrient media MEM supplemented with heat inactivated fetal bovine serum (HyClone, Utah, USA) (10%), penicillin (100 U/ml) and streptomycin (100 μg/ml) (Invitrogen Life Technologies, MD, USA). The cells were grown at 37° C. in 5% CO2 and humidified air atmosphere. Stock solutions of all the compounds were prepared in DMSO at a concentration of 10-11.5 mM and afterwards diluted to the required concentration. The 3-(4,5-dimethylthiazol-2-yl)-2,5-diphenyltetrazolium bromide (MTT) was dissolved (1 mg/ml) in MEM (without phenol red) and filtered through a Millipore filter, 0.22 μm, before use. MTT Cell Proliferation Assay: (HEp-2) and (MCF-7) cells were plated at a density of 15,000 cells per well in 96 well tissue culture plates. Cells were allowed to adhere for 24 h at 37° C. and then treated with various concentrations (0, 0.1, 1.0, and 10 μM) of compounds dissolved in DMSO for additional 72 h, in triplicates. In the control wells nutrient medium with correspondent concentration of DMSO only was added to the cells. Thereafter cell proliferation was assessed by replacing treatment medium with 50 μL media containing 1 mg/mL MTT and incubated for 4 h at 37° C. Medium was then aspirated off and formazan crystals were solubilized in […] of isopropanol. The optical density was read on a microplate reader at 570 nm using 630 nm as a reference filter against a blank prepared from cell free wells. Absorbance given by cells treated with the carrier DMSO alone was taken as 100% cell growth. All assays were performed in triplicates. Antiproliferative Activity. The antiproliferative activity of both the compounds 2 and 3 were tested against human cancer cells, HEp-2 and MCF-7 which were grown in vitro. Compound (2) up to a concentration of 10 μM had no effect on the survival of HEp-2 and MCF-7 cells. […] IC50 value for compound (2) was between 2-3 μM.

[2] = system: human mammary adenocarcinoma (MCF-7); experiment: MTT cell proliferation assay, MCF-7 cells; type: cell-based; conditions: for IC50: Homo sapiens, MCF7, 72 h treatment, MTT, read-out: IC50, reduction in proliferation
Description: as §1

## C[C@H](CCC(=O)NCCNC(=O)CC[C@@H](C)[C@H]1CCC2C3C(C[C@H](O)[C@@]21C)[C@@]1(C)CC[C@@H](O)CC1C[C@H]3O)[C@H]1CCC2C3C(C[C@H](O)[C@@]21C)[C@@]1(C)CC[C@@H](O)CC1C[C@H]3O (stereo partly drawn) [Compound 2, N^1,N^2-Ethylenediamine bis [cholic acid amide]]
[1]
  IC50: 2000 to 3000 nM
[1]; up to a concentration of 10 μM
  effect on survival of cells: no effect
[2]
  IC50: 2000 to 3000 nM
[2]; up to a concentration of 10 μM
  effect on survival of cells: no effect
other
  melting point: 205 °C

## C[C@H](CCC(=O)NCCNC(=O)CC[C@@H](C)[C@H]1CCC2C3CCC4C[C@H](O)CC[C@]4(C)C3C[C@H](O)[C@@]21C)[C@H]1CCC2C3CCC4C[C@H](O)CC[C@]4(C)C3C[C@H](O)[C@@]21C (stereo partly drawn) [Compound 3, N^1,N^2-Ethylenediamine bis [deoxycholic acid amide]]
[1]; 0.1-10 μM, 72 h
  reduction in proliferation: significant reduction
[1]
  IC50: 2000 to 4000 nM
[1]; at 10 μM concentration, 72 h
  growth inhibition at 10 μM: totally inhibited
[2]; 0.1-10 μM, 72 h
  reduction in proliferation: significant reduction
[2]
  IC50: 2000 to 4000 nM
[2]; at 10 μM concentration, 72 h
  growth inhibition at 10 μM: totally inhibited
other
  melting point: 170 °C

Source: US20060003974A1, “Bile acid derived steroidal dimers with amphiphilic topology having antiproliferative activity” (COUNCIL OF SCIENTIFIC AND INDUSTRIAL RESEARCH, priority 2004, published 2006)
